Data on 1 molecule can be found in PMC6445163, “Design, synthesis, and evaluation of novel 2-phenylpropionic acid derivatives as dual COX inhibitory-antibacterial agents” (Journal of Enzyme Inhibition and Medicinal Chemistry, 2017).

Molecules are shown by their SMILES.

Data set [1] deals with T1, COX-1 (Ovis aries, UniProt P05979).
T1 construct: purchased Biovision K548-100
T1 sequence (P05979 25-600): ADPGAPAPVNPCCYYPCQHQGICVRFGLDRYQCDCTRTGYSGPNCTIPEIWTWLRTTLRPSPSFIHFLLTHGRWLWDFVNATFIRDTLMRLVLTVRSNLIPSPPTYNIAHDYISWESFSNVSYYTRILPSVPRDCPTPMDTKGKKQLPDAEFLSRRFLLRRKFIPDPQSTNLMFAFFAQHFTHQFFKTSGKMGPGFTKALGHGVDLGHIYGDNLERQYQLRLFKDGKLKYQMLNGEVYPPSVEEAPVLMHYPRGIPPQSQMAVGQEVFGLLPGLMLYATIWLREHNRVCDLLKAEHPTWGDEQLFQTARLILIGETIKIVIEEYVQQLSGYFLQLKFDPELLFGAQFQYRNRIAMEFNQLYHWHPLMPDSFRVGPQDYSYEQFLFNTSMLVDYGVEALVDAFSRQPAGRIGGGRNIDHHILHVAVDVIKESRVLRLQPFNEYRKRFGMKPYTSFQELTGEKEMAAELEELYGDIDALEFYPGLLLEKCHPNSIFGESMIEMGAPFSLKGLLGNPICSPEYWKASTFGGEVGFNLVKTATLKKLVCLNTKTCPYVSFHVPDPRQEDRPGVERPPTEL
The data set is described as follows: fluorometric COX-1 inhibitor screening kit assay. Format: biochemical. The note with it: fluorometric kit, 25 °C. On the procedure:
Inhibitory potency of the compounds against COX-1 and COX-2 enzymes was determined using fluorometric COX-1 and COX-2 inhibitor screening kits (Biovision, Zurich, Switzerland). Experimental protocol was followed as described in the guides of the supplier[47]^,[48]. All of the pipettings in the assay were performed by Biotek Precision robotic system (BioTek Instruments, Inc., Winooski, VT). […] Appropriate two points (T1 and T2) in the linear range of the plot were chosen, and the corresponding fluorescence values (RFU1 and RFU2) were obtained. The slope for all samples, including enzyme control (EC), by dividing the net ΔRFU (RFU2–RFU1) values by the time ΔT (T2–T1) were calculated by using following equation: % Relative inhibition=(Slope of EC-Slope of S/Slope of EC)×100
This initial in vitro assay was done with two concentrations (10^−3 and 10^−4 M) for all compounds. […] The IC50 value was calculated from the plots of enzyme activity against concentrations by applying regression analyses on GraphPad Prism Version 5 (GraphPad Software, La Jolla, CA).
Selectivity indexes (SI) were expressed as IC50 (COX-1)/IC50 (COX-2). Selectivity toward COX-2 decreases as the corresponding SI decreases while selectivity toward COX-1 isoform increases as the corresponding SI decreases.

Data set [2] is described as follows: MTT cytotoxicity test. The note with it: mouse. On the procedure:
NIH/3T3 cells were incubated according to the supplier’s recommendations. NIH/3T3 cells were seeded at 1 × 10^4 cells into each well of 96-well plates. MTT assay was performed as previously described[51]^,[52].
There are a number of requirements to be fulfilled for successful new drug development. […] This assay is based upon the reduction of yellow MTT dye by metabolically active eukaryotic and prokaryotic cells to form the purple formazan product. The assay is generally used to examine cell viability and to estimate cell culture growth[66]^,[67].
For orientation: Tetrazolium assays rely on reduction of a dye to a coloured formazan, in cell work by metabolically active cells.

For `CS(=O)(=O)Nc1ccc([N+](=O)[O-])cc1Oc1ccccc1` [Nimesulide, reference compound], the IC50 in data set [1] is 4.28 µM; in data set [2], at least 1000 µM.

Usually IC50 stands for the point on the concentration scale where inhibition reaches its midpoint. Low readings indicate greater potency, high ones weaker potency.
